Source: BindingDB's records for doi:10.1016/s1074-5521(99)80118-5 (Princeton University, 1999)
pIC50: −log10 of the molar value.

Biological target: T1, Tyrosine-protein kinase ZAP-70 (Homo sapiens, UniProt P43403)
T1 sequence (P43403 whole entry): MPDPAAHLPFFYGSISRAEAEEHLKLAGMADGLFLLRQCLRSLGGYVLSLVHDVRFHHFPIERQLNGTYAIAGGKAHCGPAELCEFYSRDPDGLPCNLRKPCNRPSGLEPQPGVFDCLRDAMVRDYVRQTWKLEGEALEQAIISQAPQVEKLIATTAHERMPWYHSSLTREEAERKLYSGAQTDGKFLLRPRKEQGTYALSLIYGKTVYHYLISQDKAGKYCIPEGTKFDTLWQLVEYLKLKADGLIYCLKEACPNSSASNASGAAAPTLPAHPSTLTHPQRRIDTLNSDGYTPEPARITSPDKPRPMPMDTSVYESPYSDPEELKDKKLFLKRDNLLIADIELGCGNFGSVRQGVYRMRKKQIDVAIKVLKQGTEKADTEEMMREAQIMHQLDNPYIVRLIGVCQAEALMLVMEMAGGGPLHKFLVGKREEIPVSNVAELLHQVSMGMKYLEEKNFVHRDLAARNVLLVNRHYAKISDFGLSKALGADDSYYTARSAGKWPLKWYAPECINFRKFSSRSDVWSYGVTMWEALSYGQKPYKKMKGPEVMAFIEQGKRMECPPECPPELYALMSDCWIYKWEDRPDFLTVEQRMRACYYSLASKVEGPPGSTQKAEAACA
Assay: Inhibition Assay
Source text: Inhibition of protein tyrosine kinases

pIC50: < 4.00
Structure (SMILES): Cc1ccc(-c2nn(C(C)(C)C)c3ncnc(N)c23)cc1
